System: patients with metastatic, chemo-naive, hormone-refractory prostate cancer (HRPC)
Assay: Phase I safety analysis: adverse events graded by CTCAE version 3.0
Type: in vivo, human
Conditions: all courses
Method: On days 2–21 (21-day cycle), patients took an oral dose of BIBF 1120 twice daily. Patients were instructed to swallow BIBF 1120 with water at the same time every day to ensure a dose interval of ∼12 h. On day 2 of treatment cycles (TCs) 1 and 2, patients only took the morning dose of BIBF 1120, omitting the evening dose to allow PK evaluation. All patients were premedicated with oral corticosteroids (dexamethasone 8 mg per os or methylprednisolone 32 mg per os, at 12 h and 1 h before docetaxel infusion) and subsequently took 5 mg prednisone oral BID throughout the trial. On day 1 of each TC, patients received an IV infusion of 75 mg m^−2 docetaxel administered over 1 h.
All patients who received at least one dose of BIBF 1120 or docetaxel were assessed during the safety analysis. Intensity of AEs was graded according to Common Terminology Criteria for Adverse Events (CTCAE) version 3.0. Objective response was defined as a PSA decline ⩾50% from the baseline value over two consecutive courses and/or tumour response according to RECIST criteria ([Therasse et al, 2000]).

[1] = 100 mg BID (n=3) + docetaxel/prednisone, Gr 3/4
[2] = 100 mg BID (n=3) + docetaxel/prednisone, all grades
[3] = 150 mg BID (n=3) + docetaxel/prednisone, Gr 3/4
[4] = 150 mg BID (n=3) + docetaxel/prednisone, all grades
[5] = 200 mg BID (n=3) + docetaxel/prednisone, Gr 3/4
[6] = 200 mg BID (n=3) + docetaxel/prednisone, all grades

COC(=O)c1ccc2c(c1)NC(=O)/C2=C(\Nc1ccc(N(C)C(=O)CN2CCN(C)CC2)cc1)c1ccccc1 [BIBF 1120]
Ageusia: patients with drug-related AE [1]: 0 | Alopecia: patients with drug-related AE [1]: 0 | Anorexia: patients with drug-related AE [1]: 0 | Asthenia: patients with drug-related AE [1]: 0 | Constipation: patients with drug-related AE [1]: 0 | Diarrhoea: patients with drug-related AE [1]: 0 | Dysgeusia: patients with drug-related AE [1]: 0 | Dyspepsia: patients with drug-related AE [1]: 0 | Dysphonia: patients with drug-related AE [1]: 0 | Elevated ALT: patients with drug-related AE [1]: 0 | Elevated AST: patients with drug-related AE [1]: 0 | Elevated GGT: patients with drug-related AE [1]: 0 | Elevated alkaline phosphatase: patients with drug-related AE [1]: 0 | Epistasis: patients with drug-related AE [1]: 0 | Headache: patients with drug-related AE [1]: 0 | Hot flush: patients with drug-related AE [1]: 0 | Mucosal inflammation: patients with drug-related AE [1]: 0 | Muscle spasm: patients with drug-related AE [1]: 0 | Nausea: patients with drug-related AE [1]: 0 | Neuropathy: patients with drug-related AE [1]: 0 | Pyrexia: patients with drug-related AE [1]: 0 | Rash: patients with drug-related AE [1]: 0 | Upper abdominal pain: patients with drug-related AE [1]: 0 | Vomiting: patients with drug-related AE [1]: 0 | Weight decrease: patients with drug-related AE [1]: 0 | Ageusia: patients with drug-related AE [2]: 0 | Alopecia: patients with drug-related AE [2]: 0 | Anorexia: patients with drug-related AE [2]: 0 | Asthenia: patients with drug-related AE [2]: 0 | Constipation: patients with drug-related AE [2]: 0 | Diarrhoea: patients with drug-related AE [2]: 0 | Dysgeusia: patients with drug-related AE [2]: 0 | Dyspepsia: patients with drug-related AE [2]: 0 | Dysphonia: patients with drug-related AE [2]: 0 | Elevated ALT: patients with drug-related AE [2]: 0 | Elevated AST: patients with drug-related AE [2]: 0 | Elevated GGT: patients with drug-related AE [2]: 0 | Elevated alkaline phosphatase: patients with drug-related AE [2]: 0 | Epistasis: patients with drug-related AE [2]: 0 | Headache: patients with drug-related AE [2]: 0 | Hot flush: patients with drug-related AE [2]: 0 | Mucosal inflammation: patients with drug-related AE [2]: 0 | Muscle spasm: patients with drug-related AE [2]: 0 | Nausea: patients with drug-related AE [2]: 0 | Neuropathy: patients with drug-related AE [2]: 0 | Pyrexia: patients with drug-related AE [2]: 0 | Rash: patients with drug-related AE [2]: 0 | Upper abdominal pain: patients with drug-related AE [2]: 0 | Vomiting: patients with drug-related AE [2]: 0 | Weight decrease: patients with drug-related AE [2]: 0 | Ageusia: patients with drug-related AE [3]: 0 | Alopecia: patients with drug-related AE [3]: 0 | Anorexia: patients with drug-related AE [3]: 0 | Asthenia: patients with drug-related AE [3]: 0 | Constipation: patients with drug-related AE [3]: 0 | Diarrhoea: patients with drug-related AE [3]: 0 | Dysgeusia: patients with drug-related AE [3]: 0 | Dyspepsia: patients with drug-related AE [3]: 0 | Dysphonia: patients with drug-related AE [3]: 0 | Elevated ALT: patients with drug-related AE [3]: 0 | Elevated AST: patients with drug-related AE [3]: 0 | Elevated GGT: patients with drug-related AE [3]: 0 | Elevated alkaline phosphatase: patients with drug-related AE [3]: 0 | Epistasis: patients with drug-related AE [3]: 0 | Headache: patients with drug-related AE [3]: 0 | Hot flush: patients with drug-related AE [3]: 0 | Mucosal inflammation: patients with drug-related AE [3]: 0 | Muscle spasm: patients with drug-related AE [3]: 0 | Nausea: patients with drug-related AE [3]: 0 | Neuropathy: patients with drug-related AE [3]: 0 | Pyrexia: patients with drug-related AE [3]: 0 | Rash: patients with drug-related AE [3]: 0 | Upper abdominal pain: patients with drug-related AE [3]: 0 | Vomiting: patients with drug-related AE [3]: 0 | Weight decrease: patients with drug-related AE [3]: 0 | Ageusia: patients with drug-related AE [4]: 1 | Alopecia: patients with drug-related AE [4]: 0 | Anorexia: patients with drug-related AE [4]: 3 | Asthenia: patients with drug-related AE [4]: 3 | Constipation: patients with drug-related AE [4]: 1 | Diarrhoea: patients with drug-related AE [4]: 3 | Dysgeusia: patients with drug-related AE [4]: 1 | Dyspepsia: patients with drug-related AE [4]: 1 | Dysphonia: patients with drug-related AE [4]: 1 | Elevated ALT: patients with drug-related AE [4]: 0 | Elevated AST: patients with drug-related AE [4]: 0 | Elevated GGT: patients with drug-related AE [4]: 0 | Elevated alkaline phosphatase: patients with drug-related AE [4]: 0 | Epistasis: patients with drug-related AE [4]: 1 | Headache: patients with drug-related AE [4]: 2 | Hot flush: patients with drug-related AE [4]: 0 | Mucosal inflammation: patients with drug-related AE [4]: 0 | Muscle spasm: patients with drug-related AE [4]: 0 | Nausea: patients with drug-related AE [4]: 2 | Neuropathy: patients with drug-related AE [4]: 1 | Pyrexia: patients with drug-related AE [4]: 1 | Rash: patients with drug-related AE [4]: 0 | Upper abdominal pain: patients with drug-related AE [4]: 1 | Vomiting: patients with drug-related AE [4]: 0 | Weight decrease: patients with drug-related AE [4]: 1 | Ageusia: patients with drug-related AE [5]: 0 | Alopecia: patients with drug-related AE [5]: 0 | Anorexia: patients with drug-related AE [5]: 0 | Asthenia: patients with drug-related AE [5]: 0 | Constipation: patients with drug-related AE [5]: 0 | Diarrhoea: patients with drug-related AE [5]: 2 | Dysgeusia: patients with drug-related AE [5]: 0 | Dyspepsia: patients with drug-related AE [5]: 0 | Dysphonia: patients with drug-related AE [5]: 0 | Elevated ALT: patients with drug-related AE [5]: 0 | Elevated AST: patients with drug-related AE [5]: 0 | Elevated GGT: patients with drug-related AE [5]: 0 | Elevated alkaline phosphatase: patients with drug-related AE [5]: 0 | Epistasis: patients with drug-related AE [5]: 0 | Headache: patients with drug-related AE [5]: 0 | Hot flush: patients with drug-related AE [5]: 0 | Mucosal inflammation: patients with drug-related AE [5]: 0 | Muscle spasm: patients with drug-related AE [5]: 0 | Nausea: patients with drug-related AE [5]: 0 | Neuropathy: patients with drug-related AE [5]: 0 | Pyrexia: patients with drug-related AE [5]: 0 | Rash: patients with drug-related AE [5]: 0 | Upper abdominal pain: patients with drug-related AE [5]: 0 | Vomiting: patients with drug-related AE [5]: 0 | Weight decrease: patients with drug-related AE [5]: 0 | Ageusia: patients with drug-related AE [6]: 0 | Alopecia: patients with drug-related AE [6]: 0 | Anorexia: patients with drug-related AE [6]: 0 | Asthenia: patients with drug-related AE [6]: 1 | Constipation: patients with drug-related AE [6]: 0 | Diarrhoea: patients with drug-related AE [6]: 2 | Dysgeusia: patients with drug-related AE [6]: 0
